{
  "source": "patent US20240366521A1",
  "about": "“NANOPARTICLES AND METHODS OF USE” (Qana Therapeutics Inc., priority 2023, published 2024)",
  "experiment": "Solvent screen of MMAE",
  "format": "physicochemical",
  "settings": "acetone, ethanol, and isopropanol",
  "protocol": "A solvent screen of MMAE was conducted.",
  "data": [
    {"smiles": "CCC(C)C(C(CC(=O)N1CCCC1C(OC)C(C)C(=O)NC(C)C(O)c1ccccc1)OC)N(C)C(=O)C(NC(=O)C(NC)C(C)C)C(C)C", "note": "(stereo not shown) [MMAE, monomethyl auristatin E]", "values": [
      {"measurement": "solubility of MMAE in solvent", "result": "good solubility"}
    ]}
  ]
}
